Data: US8796328B2, “TRPV1 antagonists” (AbbVie Inc., priority 2012, dated 2014)
pIC50: −log10 of the molar value.

What was measured:
[1] = molecular target: T1, human TRPV1 receptor (hTRPV1) (Homo sapiens (Human), UniProt Q8NER1); experiment: Acid activation assay (pH 5.0, FLIPR intracellular Ca2+); type: cell-based; details: 37.5 μM compound, percentage of the maximal pH 5.0-induced response remaining; for remaining activity at 37.5 µM: read-out: hTRPV1 H+ (max % remain)
Protocol: Dulbecco's modified Eagle's medium (DMEM) with 4.5 mg/mL D-glucose, fetal bovine serum, L-glutamine, and 2-morpholinoethanesulfonic acid (MES) were purchased from Sigma-Aldrich Co. (St. Louis, Mo.). Dulbecco's phosphate-buffered saline (DPBS) with Ca^2+, Mg^2+, and 1 mg/mL D-glucose (pH 7.4), Geneticin®, 0.25% trypsin-1 mM EDTA, and penicillin-streptomycin were purchased from Invitrogen Corp. (Carlsbad, Calif.). The FLIPR® Calcium 4 assay kit was purchased from Molecular Devices (Sunnyvale, Calif.).
(§1) The cDNAs for the human TRPV1 receptor (hTRPV1) were isolated by reverse transcriptase-polymerase chain reaction (RT-PCR) from human small intestine poly A+ RNA supplied by Clontech (Palo Alto, Calif.) using primers designed surrounding the initiation and termination codons identical to the published sequences (Hayes et al. Pain 2000, 88, 205-215). The resulting cDNA PCR products were subcloned into pCIneo mammalian expression vector (Promega) and fully sequenced using fluorescent dye-terminator reagents (Prism, Perkin-Elmer Applied Biosystems Division) and a Perkin-Elmer Applied Biosystems Model 373 DNA sequencer or Model 310 genetic analyzer. Expression plasmids encoding the hTRPV1 cDNA were transfected individually into 1321N1 human astrocytoma cells using Lipofectamine®. Forty-eight hours after transfection, the neomycin-resistant cells were selected with growth medium containing 800 μg/mL Geneticin (Gibco BRL). Surviving individual colonies were isolated and screened for TRPV1 receptor activity. Cells expressing recombinant homomeric TRPV1 receptors were maintained at 37° C. in DMEM containing 4 mM L-glutamine, 300 μg/mL G418 (Cal-biochem) and 10% fetal bovine serum under a humidified 5% CO2 atmosphere.
The functional activity of compounds at the TRPV1 receptor was determined by measurement of intracellular Ca^2+ levels ([Ca^2+]i) using the Fluorescence Imaging Plate Reader (FLIPR)^TETRA®. All compounds were tested over a 12-point one-half-log concentration range. Compound stocks, 10 mM, were prepared in DMSO, and diluted serially across a 384-well plate using a Bravo BenchCel workstation (Agilent Technologies, Santa Clara, Calif.).
On the day of the experiment growth medium was removed, and the no-wash FLIPR®Calcium-4 dye (λEX=470-495 nm, λEM=515-575 nm) was added to each well using the Multidrop® dispenser. Cells were incubated for 90-120 minutes in the dark at 25° C. Test compounds were dissolved in DMSO, and plates were prepared using an Agilent Bravo workstation (Agilent Technologies Inc., Santa Clara, Calif.). Compounds were added to the cells 3 minutes prior to the addition of a pH 5.0 solution. Reagents were delivered at a rate of 40 μL/sec, and the final assay volume was 80 μL. Acidic pH solutions were prepared by titration of DPBS/MES with 1 N HCl. The intensity of the fluorescence was captured and digitally transferred to an interfaced PC.

[2] = molecular target: T1, human TRPV1 receptor (hTRPV1); experiment: Capsaicin activation assay (FLIPR intracellular Ca2+); type: cell-based; details: inhibition of capsaicin-induced intracellular Ca2+ increase; compounds added 3 minutes prior to capsaicin; read-out: hTRPV1 cap. IC50
Protocol: Dulbecco's modified Eagle medium (D-MEM) (with 4.5 mg/mL glucose) and fetal bovine serum were obtained from Hyclone Laboratories, Inc. (Logan, Utah). Dulbecco's phosphate-buffered saline (D-PBS) (with 1 mg/mL glucose and 3.6 mg/l Na pyruvate, without phenol red), L-glutamine, hygromycin B, and Lipofectamine® were obtained from Life Technologies (Grand Island, N.Y.). G418 sulfate was obtained from Calbiochem-Novabiochem Corp. (San Diego, Calif.). Capsaicin (8-methyl-N-vanillyl-6-nonenamide) was obtained from Sigma-Aldrich, Co. (St. Louis, Mo.). Fluo-4 AM (N-[4-[6-[(acetyloxy)methoxy]-2,7-difluoro-3-oxo-3H-xanthen-9-yl]-2-[2-[2-[bis[2-[(acetyloxy)methoxy]-2-oxyethyl]amino]-5-methylphenoxy]ethoxy]phenyl]-N-[2-[(acetyloxy)methoxy]-2-oxyethyl]-glycine, (acetyloxy)methyl ester) was purchased from Molecular Probes (Eugene, Oreg.).
as §1, with “D-MEM” for “DMEM”
The functional activity of compounds at the TRPV1 receptor was determined by measurement of intracellular Ca^2+ levels ([Ca^2]i) using the Fluorescence Imaging Plate Reader (FLIPR)^TETRA®. All compounds were tested over a 12-point one-third-log concentration range. Compound stocks, 10 mM, were prepared in DMSO, and diluted serially across a 384-well plate using a Bravo BenchCel workstation (Agilent Technologies, Santa Clara, Calif.). A stock concentration of capsaicin (10 mM) was made in DMSO, and diluted in D-PBS to a final concentration of 200 nM (4×). On the day prior to the experiment, recombinant HEK293 cells that stably express either human or rat TRPV1 (hTRPV1-3) were removed from tissue culture flasks and plated in growth medium into black-walled clear-bottom 384-well Biocoat™ poly-D-lysine assay plates (BD Biosciences, Bedford, Mass.) using a Multidrop® dispenser (ThermoScientific, Waltham, Mass.). On the day of the experiment, growth medium was removed, and the no-wash FLIPR® Calcium-4 dye (λEX=470-495 nm, λEM=515-575 nm; Molecular Devices, Sunnyvale, Calif.) was added to each well using the Multidrop® dispenser. Cells were incubated for 90-120 minutes in the dark at room temperature. Test compounds were added to the cells 3 minutes prior to the addition of 200 nM capsaicin (4×), and the final assay volume was 80 μL. Fluorescence readings were made at 1 to 5 second intervals over the course of the experimental run. The peak increase in relative fluorescence units (minus baseline) was calculated, and expressed as a percentage of the 50 nM capsaicin (control) response. Curve-fits of the data were solved using a four-parameter logistic Hill equation in GraphPad Prism® (GraphPad Software, Inc., San Diego, Calif.), and IC50 values (concentration of the test compounds that inhibits 50% of the intracellular Ca^2+ concentration increase induced by capasin) were calculated.

T1 sequence (Q8NER1 whole entry): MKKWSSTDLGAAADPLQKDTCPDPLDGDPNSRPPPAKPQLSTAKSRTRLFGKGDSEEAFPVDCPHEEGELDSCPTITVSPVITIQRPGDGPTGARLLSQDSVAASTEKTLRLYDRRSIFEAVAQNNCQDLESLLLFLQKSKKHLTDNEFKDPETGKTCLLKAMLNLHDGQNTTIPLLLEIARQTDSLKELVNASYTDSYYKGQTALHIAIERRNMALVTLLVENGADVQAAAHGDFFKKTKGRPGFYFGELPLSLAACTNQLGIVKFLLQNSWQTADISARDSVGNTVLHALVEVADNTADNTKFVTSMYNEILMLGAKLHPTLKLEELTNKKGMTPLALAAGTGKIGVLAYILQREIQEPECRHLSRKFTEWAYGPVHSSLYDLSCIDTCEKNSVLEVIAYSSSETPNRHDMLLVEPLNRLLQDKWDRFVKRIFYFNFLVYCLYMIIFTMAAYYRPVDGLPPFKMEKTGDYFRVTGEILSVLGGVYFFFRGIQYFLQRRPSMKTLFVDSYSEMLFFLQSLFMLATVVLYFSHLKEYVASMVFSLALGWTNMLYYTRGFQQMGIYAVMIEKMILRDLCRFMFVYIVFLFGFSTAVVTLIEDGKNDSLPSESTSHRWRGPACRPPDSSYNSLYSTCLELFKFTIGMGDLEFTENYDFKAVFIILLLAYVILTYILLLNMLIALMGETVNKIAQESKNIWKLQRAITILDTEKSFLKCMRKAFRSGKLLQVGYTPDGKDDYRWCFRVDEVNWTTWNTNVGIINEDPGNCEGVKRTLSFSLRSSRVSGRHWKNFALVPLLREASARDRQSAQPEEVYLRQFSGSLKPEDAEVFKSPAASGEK

| SMILES | remaining activity at 37.5 µM [1] [%] | pIC50 [2] | hTRPV1 H+ (max % remain) [1] [%] |
| --- | --- | --- | --- |
| C[C@@]1(C(F)(F)F)C[C@@H](NC(=O)NCc2ccc(NS(C)(=O)=O)c(F)c2)c2ccccc2O1 [Example 35, N-{2-fluoro-4-[({[(2S,4R)-2-methyl-2-(trifluoromethyl)-3,4-dihydro-2H-chromen-4-yl]carbamoyl}amino)methyl]phenyl}methanesulfonamide] | 25 | 5.61 | – |
| CS(=O)(=O)Nc1ccc(CNC(=O)N[C@@H]2CC(CF)(CF)Oc3ccccc32)cc1F [Example 27, N-{4-[({[(4R)-2,2-bis(fluoromethyl)-3,4-dihydro-2H-chromen-4-yl]carbamoyl}amino)methyl]-2-fluorophenyl}methanesulfonamide] | 59 | 4.65 | – |
| CC1(C)C[C@@H](NC(=O)NCc2ccc(NS(C)(=O)=O)c(F)c2)c2ccc(F)c(F)c2O1 [Example 29, N-{4-[({[(4R)-7,8-difluoro-2,2-dimethyl-3,4-dihydro-2H-chromen-4-yl]carbamoyl}amino)methyl]-2-fluorophenyl}methanesulfonamide] | 27 | 5.94 | – |
| CS(=O)(=O)Nc1ccc(CNC(=O)N[C@@H]2CCOc3ccc(F)cc32)cc1F [Example 30, N-{2-fluoro-4-[({[(4R)-6-fluoro-3,4-dihydro-2H-chromen-4-yl]carbamoyl}amino)methyl]phenyl}methanesulfonamide] | 84 | < 4.43 | – |
| CC1(C)C[C@@H](NC(=O)NCc2ccc(NS(C)(=O)=O)c(F)c2)c2ccccc2O1 [Example 21, N-{4-[({[(4R)-2,2-dimethyl-3,4-dihydro-2H-chromen-4-yl]carbamoyl}amino)methyl]-2-fluorophenyl}methanesulfonamide] | 74 | 5.12 | – |
| C[C@@]1(C(F)F)C[C@@H](NC(=O)NCc2ccc(NS(C)(=O)=O)c(F)c2)c2ccccc2O1 [Example 40, N-{4-[({[(2S,4R)-2-(difluoromethyl)-2-methyl-3,4-dihydro-2H-chromen-4-yl]carbamoyl}amino)methyl]-2-fluorophenyl}methanesulfonamide] | 64 | 5.00 | – |
| CCC1(CC)C[C@@H](NC(=O)NCc2ccc(NS(C)(=O)=O)c(F)c2)c2cccc(F)c2O1 [Example 13, N-{4-[({[(4R)-2,2-diethyl-8-fluoro-3,4-dihydro-2H-chromen-4-yl]carbamoyl}amino)methyl]-2-fluorophenyl}methanesulfonamide] | 27 | 6.38 | – |
| C[C@]1(C(F)F)C[C@@H](NC(=O)NCc2ccc(NS(C)(=O)=O)c(F)c2)c2ccccc2O1 [Example 41, N-{4-[({[(2R,4R)-2-(difluoromethyl)-2-methyl-3,4-dihydro-2H-chromen-4-yl]carbamoyl}amino)methyl]-2-fluorophenyl}methanesulfonamide] | 71 | 5.28 | – |
| CC1(C)C[C@@H](NC(=O)NCc2ccc(NS(C)(=O)=O)c(F)c2)c2cc(F)ccc2O1 [Example 22, N-{2-fluoro-4-[({[(4R)-6-fluoro-2,2-dimethyl-3,4-dihydro-2H-chromen-4-yl]carbamoyl}amino)methyl]phenyl}methanesulfonamide] | 71 | 5.12 | – |
| CC1(C)C[C@@H](NC(=O)NCc2ccc(NS(C)(=O)=O)c(F)c2)c2ccc(C(F)(F)F)nc2O1 [Example 42, N-{4-[({[(4R)-2,2-dimethyl-7-(trifluoromethyl)-3,4-dihydro-2H-pyrano[2,3-b]pyridin-4-yl]carbamoyl}amino)methyl]-2-fluorophenyl}methanesulfonamide] | 82 | 4.48 | – |
| CS(=O)(=O)Nc1ccc(CNC(=O)N[C@@H]2CCOc3cc(OC(F)(F)F)ccc32)cc1F [Example 26, N-{2-fluoro-4-[({[(4R)-7-(trifluoromethoxy)-3,4-dihydro-2H-chromen-4-yl]carbamoyl}amino)methyl]phenyl}methanesulfonamide] | 84 | < 4.43 | – |
| CS(=O)(=O)Nc1ccc(CNC(=O)N[C@H]2CC3(CCC3)Oc3ccc(F)cc32)cc1F [Example 33, N-{2-fluoro-4-[({[(45)-6-fluoro-3,4-dihydrospiro[chromene-2,1′-cyclobutan]-4-yl]carbamoyl}amino)methyl]phenyl}methanesulfonamide] | – | 4.64 | 101 |
| CS(=O)(=O)Nc1ccc(CNC(=O)N[C@@H]2CC(CF)(CF)Oc3cc(Cl)ccc32)cc1F [Example 6, N-{4-[({[(4R)-7-chloro-2,2-bis(fluoromethyl)-3,4-dihydro-2H-chromen-4-yl]carbamoyl}amino)methyl]-2-fluorophenyl}methanesulfonamide] | 73 | 5.54 | – |
| CC1(C)C[C@@H](NC(=O)NCc2ccc(NS(C)(=O)=O)c(F)c2)c2ccc(Cl)cc2O1 [Example 25, N-{4-[({[(4R)-7-chloro-2,2-dimethyl-3,4-dihydro-2H-chromen-4-yl]carbamoyl}amino)methyl]-2-fluorophenyl}methanesulfonamide] | 70 | 6.22 | – |
| CC1(C)C[C@@H](NC(=O)NCc2ccc(NS(C)(=O)=O)c(F)c2)c2ccc(F)c(Cl)c2O1 [Example 23, N-{4-[({[(4R)-8-chloro-7-fluoro-2,2-dimethyl-3,4-dihydro-2H-chromen-4-yl]carbamoyl}amino)methyl]-2-fluorophenyl}methanesulfonamide] | 24 | 6.45 | – |
